What was measured:
[1] = test system: spores of B. atrophaeus; type: cell-based, Bacillus atrophaeus
[2] = test system: Pixuna virus (PIXV); type: cell-based; conditions: screening, FIG. 1; guanidium thiocyanate at 3.5 M
[3] = test system: VACV; design: species or system Vaccinia virus
[4] = test system: B. atrophaeus endospores; design: species or system Bacillus atrophaeus
[5] = test system: P. aeruginosa; design: species or system Pseudomonas aeruginosa

N#CS.N=C(N)N [Guanidium thiocyanate, guanidium thiocyanate]
killing / inactivating effect on spores [1]: little inactivating effect | inactivating effect on PIXV [2]: little inactivating effect

O=CCCCC=O [glutaraldehyde]
killing / inactivating effect on spores [1]: did not completely kill all of the spores

OO [hydrogen peroxide]
killing / inactivating effect on spores [1]: did not completely kill all of the spores

CC(=O)OO [peracetic acid]
ELISA sensitivity for VACV, of untreated controls [3]: ~50%

cupric ascorbate
ELISA sensitivity for spores, of untreated controls [4]: 80-90% | ELISA sensitivity for vegetative bacteria, of untreated controls [5]: 80-90%
